Source: PubChem BioAssay (NCI)
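Cells were grown in 96-well plates and exposed to each compound for 48 hours at five concentrations; endpoints were interpolated linearly between bracketing concentrations, or set to the highest concentration if not reached. Here, GI50 denotes the concentration required for 50% inhibition of growth. TGI denotes the concentration required for complete inhibition of growth.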

What was measured:
Assay in all cases: growth of human tumour cells (NCI), 48 h
[1] = tested on: SNB-75 CNS
[2] = tested on: COLO 205 colon
[3] = tested on: DU-145 prostate
[4] = tested on: NCI-H522 lung
[5] = tested on: SN12C renal
[6] = tested on: LOX IMVI melanoma
[7] = tested on: T-47D breast
[8] = tested on: MOLT-4 leukemia
[9] = tested on: UO-31 renal
[10] = tested on: SR leukemia

SMILES	TGI [1] [µM]	TGI [2] [µM]	TGI [3] [µM]	TGI [4] [µM]	TGI [5] [µM]	TGI [6] [µM]	TGI [7] [µM]	TGI [8] [µM]	TGI [9] [µM]	TGI [10] [µM]	GI50 [1] [µM]	GI50 [2] [µM]	GI50 [3] [µM]	GI50 [4] [µM]	GI50 [6] [µM]	GI50 [9] [µM]	GI50 [7] [µM]	GI50 [8] [µM]
CCO/C(O)=C(/C(=N)N1CCCC1)C(=O)Nc1cccc(C(F)(F)F)c1	85.1	> 100	> 100	> 100	> 100	> 100	> 100	> 100	–	–	–	–	–	–	–	–	–	–
c1ccc2c(Cc3nnc4sc(SSc5nn6c(Cc7c[nH]c8ccccc78)nnc6s5)nn34)c[nH]c2c1	> 100	50.9	67.4	40	56.3	–	> 100	70.6	46.7	41.7	–	–	–	–	–	–	–	–
COC(=O)C1(Cc2ccccc2)Cc2ccccc2C1	96.2	35.8	> 100	–	> 100	88	90.8	41.8	55.9	> 100	–	–	–	–	–	–	–	–
COc1ccc(OC)c2c1C1CCC(=O)N1CN2C(C)=O (centres undefined)	> 100	> 100	> 100	> 100	> 100	> 100	> 100	> 100	> 100	–	–	–	–	–	–	–	–	–
Cc1ccc(C(=O)/C(C#N)=C/Nc2c(C)n(C)n(-c3ccccc3)c2=O)cc1	–	> 100	> 100	> 100	> 100	> 100	> 100	> 100	> 100	> 100	–	–	–	–	–	–	–	–
O=c1[nH]c2cc3[nH]c4ncccc4c(=O)c3cc2[nH]1	> 10	> 10	> 10	> 10	> 10	> 10	> 10	> 10	–	> 10	–	–	–	–	–	–	–	–
CCOC(=O)C(/C=N\C(=S)Nc1ccc(OCC)cc1)=C(/O)c1ccccc1	> 100	> 100	> 100	> 100	> 100	> 100	> 100	> 100	–	> 100	–	–	–	–	–	–	–	–
O=C(NCCCNCCNC(=O)c1cc(-c2ccccc2)nc2ccccc12)c1cc(-c2ccccc2)nc2ccccc12	2.83	3.21	–	3.14	3.24	2.95	–	4.31	3.89	8.73	–	–	–	–	–	–	–	–
COc1cc(S(=O)(=O)Nc2ccc(C3=NNC(c4ccccc4)C3)cc2)ccc1F (centres undefined)	> 100	> 100	> 100	> 100	–	> 100	> 100	> 100	> 100	–	23.9	51.4	76.1	38	73.5	> 100	54.2	48.3
CN(C)CCCOCCn1c2c(c3ccccc31)CCCC2	57.9	32.3	67.7	–	32.5	31.5	49.7	30.6	36.9	41	–	–	–	–	–	–	–	–
O=C(N[C@H]1c2ccsc2/C(=N/O)[C@H]1O)C(F)(F)F	> 100	> 100	> 100	–	> 100	> 100	> 100	> 100	> 100	> 100	–	–	–	–	–	–	–	–
O=C1c2cccc3cccc(c23)C(=O)N1CCCNOCCONCCCN1C(=O)c2cccc3cccc(c23)C1=O	> 100	> 100	> 100	–	–	> 100	–	> 100	> 100	> 100	–	–	–	–	–	–	–	–
NCCCCNCCCNC(=O)c1nc(-c2csc(CCN)n2)sc1Cl	> 100	> 100	–	> 100	> 100	–	–	> 100	> 100	> 100	–	–	–	–	–	–	–	–
C#CCn1c(=O)c(C#N)c(O)c2cc3ccccc3nc21	> 100	> 100	–	> 100	> 100	> 100	–	> 100	> 100	–	–	–	–	–	–	–	–	–
COc1ccccc1Nc1nc(NNC(=O)Cc2ccccc2)nc(NNC(=O)c2ccncc2)n1	> 10	> 10	> 10	–	> 10	> 10	> 10	> 10	–	> 10	–	–	–	–	–	–	–	–
Cc1c2c(OCCCCN3CCN(c4ncccn4)CC3)nn(C)c(=O)c2c(C)n1-c1ccccc1	39.4	34.8	35.8	38.2	34.5	44.5	45.8	84.6	30.8	–	–	–	–	–	–	–	–	–
CC(=O)c1cc2ccccc2n(O)c1=N	–	> 100	> 100	> 100	> 100	> 100	> 100	> 100	–	> 100	–	–	–	–	–	–	–	–
O=C1/C(=C2\Sc3c(ccc(Cl)c3Cl)C2=O)Sc2c1ccc(Cl)c2Cl	> 100	> 100	> 100	> 100	> 100	–	> 100	> 100	> 100	> 100	–	–	–	–	–	–	–	–
COc1cc(C2S/C(=C/c3ccccc3)C(=O)N2c2ccc(Cl)c(Cl)c2)cc(OC)c1OC (centres undefined)	–	> 100	> 100	51.4	> 100	> 100	> 100	> 100	> 100	> 100	–	–	–	–	–	–	–	–
Clc1ccc(N=c2oc3ccccc3cc2-c2nc3ccccc3[nH]2)c(Cl)c1	–	–	> 100	> 100	–	> 100	> 100	> 100	> 100	> 100	–	–	–	–	–	–	–	–
CC(C)OP(=O)(OC(C)C)C(C(C)C)N(C)/C(F)=N/C(F)(F)F (centres undefined)	> 100	> 100	> 100	> 100	> 100	> 100	> 100	> 100	> 100	–	–	–	–	–	–	–	–	–
O=c1[nH]c(N/N=C\C(O)C(O)C(O)CO)nc2ccccc12 (centres undefined)	> 100	> 100	> 100	–	> 100	> 100	> 100	> 100	> 100	> 100	–	–	–	–	–	–	–	–
CCc1ccc2c(c1)CC1(C2)Cc2cc3c(cc2C1)C(=O)CC3 (centres undefined)	–	17.5	–	57.3	89.6	37	85	–	92.9	–	–	–	–	–	–	–	–	–
